The numbers were not newly measured in US4215038A, “Peptides which inhibit gonadal function” (The Salk Institute for Biological Studies, priority 1978, dated 1980), which cites them from elsewhere.

Non-standard residues stand in square brackets, D forms with d. pGlu = O=C1CC[C@@H](C(=O)O)N1

In the series the test system is release of gonadotropins. The note with it: compared with the 6-Gly peptide.

For the substance [pGlu]WSY[dA]LRPG-NH2, the “potency as an inhibitor for the release of gonadotropins relative to the same peptide with Gly in the 6-position” value is on record as 3 times.
